Earlier results as cited in patent US11304902B2, “Pharmaceutical compositions, preparation and uses thereof” (CURADIGM SAS, priority 2014, dated 2022).
Entries after “also recorded” stand apart in the source; their conditions may differ.

How the values were obtained:
Details in all cases: human CYP enzyme
CYP2C19 = CYP2C19 (Homo sapiens, UniProt P33261)
CYP2E1 = CYP2E1 (Homo sapiens, UniProt P05181)
CYP4A11 = target: T1, CYP4A11 (Homo sapiens, UniProt Q02928)
T1 sequence (Q02928 5-519): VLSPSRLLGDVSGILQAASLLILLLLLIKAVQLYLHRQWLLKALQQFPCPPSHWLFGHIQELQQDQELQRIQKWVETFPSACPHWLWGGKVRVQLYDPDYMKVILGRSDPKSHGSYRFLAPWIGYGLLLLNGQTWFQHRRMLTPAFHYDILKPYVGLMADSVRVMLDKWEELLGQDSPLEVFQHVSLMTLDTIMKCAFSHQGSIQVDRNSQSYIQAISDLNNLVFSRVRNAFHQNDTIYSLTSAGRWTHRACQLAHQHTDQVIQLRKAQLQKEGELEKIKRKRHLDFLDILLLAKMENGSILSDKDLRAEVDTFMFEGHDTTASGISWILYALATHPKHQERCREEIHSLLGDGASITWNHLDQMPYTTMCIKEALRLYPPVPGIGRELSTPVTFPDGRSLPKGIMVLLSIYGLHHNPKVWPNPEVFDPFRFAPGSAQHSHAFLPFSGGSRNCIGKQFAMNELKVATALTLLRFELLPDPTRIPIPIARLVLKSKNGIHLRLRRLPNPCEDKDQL

CYP3A4 = CYP3A4 (Homo sapiens, UniProt P08684)
Sequence of CYP3A4 (P08684 whole entry): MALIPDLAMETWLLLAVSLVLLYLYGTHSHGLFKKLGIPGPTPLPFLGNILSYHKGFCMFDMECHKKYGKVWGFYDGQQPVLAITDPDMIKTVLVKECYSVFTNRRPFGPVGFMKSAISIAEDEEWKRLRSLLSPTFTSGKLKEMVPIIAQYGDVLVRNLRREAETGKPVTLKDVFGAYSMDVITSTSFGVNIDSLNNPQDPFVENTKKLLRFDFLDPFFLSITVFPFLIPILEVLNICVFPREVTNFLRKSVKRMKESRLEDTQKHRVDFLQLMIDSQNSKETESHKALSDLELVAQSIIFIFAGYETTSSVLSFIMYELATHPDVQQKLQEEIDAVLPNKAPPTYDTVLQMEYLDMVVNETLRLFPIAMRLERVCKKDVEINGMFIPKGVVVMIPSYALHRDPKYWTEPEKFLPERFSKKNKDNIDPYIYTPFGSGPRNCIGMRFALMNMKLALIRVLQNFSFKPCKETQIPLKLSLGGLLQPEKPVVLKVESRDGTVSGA

CYP4B1 = CYP4B1 (Homo sapiens, UniProt P13584)
Sequence of CYP4B1 (P13584 whole entry): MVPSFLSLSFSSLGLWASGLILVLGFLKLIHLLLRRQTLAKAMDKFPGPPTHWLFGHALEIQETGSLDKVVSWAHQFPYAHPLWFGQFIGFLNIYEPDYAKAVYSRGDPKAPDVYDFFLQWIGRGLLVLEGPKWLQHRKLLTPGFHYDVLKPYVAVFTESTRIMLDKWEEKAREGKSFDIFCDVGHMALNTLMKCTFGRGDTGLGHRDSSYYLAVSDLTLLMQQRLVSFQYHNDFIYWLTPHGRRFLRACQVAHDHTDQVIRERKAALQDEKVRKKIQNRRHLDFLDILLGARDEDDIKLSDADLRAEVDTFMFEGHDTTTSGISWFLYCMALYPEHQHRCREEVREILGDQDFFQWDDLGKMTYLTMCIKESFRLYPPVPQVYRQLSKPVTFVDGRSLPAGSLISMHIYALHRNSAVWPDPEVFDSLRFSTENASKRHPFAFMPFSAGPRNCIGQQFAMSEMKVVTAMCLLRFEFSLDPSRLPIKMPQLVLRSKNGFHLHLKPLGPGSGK

CYP2C8 = target: T2, CYP2C8 (Homo sapiens, UniProt P10632)
T2 sequence (P10632 1-490): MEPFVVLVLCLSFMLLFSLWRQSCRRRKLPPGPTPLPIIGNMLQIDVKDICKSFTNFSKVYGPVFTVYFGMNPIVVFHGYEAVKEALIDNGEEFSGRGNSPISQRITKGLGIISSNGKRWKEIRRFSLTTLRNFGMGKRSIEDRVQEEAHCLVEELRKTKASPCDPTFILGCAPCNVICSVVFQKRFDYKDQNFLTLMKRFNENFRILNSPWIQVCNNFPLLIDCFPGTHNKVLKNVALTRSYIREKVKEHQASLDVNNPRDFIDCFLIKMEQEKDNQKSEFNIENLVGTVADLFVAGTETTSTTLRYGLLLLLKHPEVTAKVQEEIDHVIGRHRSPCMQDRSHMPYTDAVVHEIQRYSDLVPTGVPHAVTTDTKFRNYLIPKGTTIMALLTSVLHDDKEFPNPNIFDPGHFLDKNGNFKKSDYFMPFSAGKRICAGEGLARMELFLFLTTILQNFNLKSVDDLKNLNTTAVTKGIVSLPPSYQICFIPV

CYP1A1 = target: T3, CYP1A1 (Homo sapiens, UniProt P04798)
T3 sequence (P04798 1-512): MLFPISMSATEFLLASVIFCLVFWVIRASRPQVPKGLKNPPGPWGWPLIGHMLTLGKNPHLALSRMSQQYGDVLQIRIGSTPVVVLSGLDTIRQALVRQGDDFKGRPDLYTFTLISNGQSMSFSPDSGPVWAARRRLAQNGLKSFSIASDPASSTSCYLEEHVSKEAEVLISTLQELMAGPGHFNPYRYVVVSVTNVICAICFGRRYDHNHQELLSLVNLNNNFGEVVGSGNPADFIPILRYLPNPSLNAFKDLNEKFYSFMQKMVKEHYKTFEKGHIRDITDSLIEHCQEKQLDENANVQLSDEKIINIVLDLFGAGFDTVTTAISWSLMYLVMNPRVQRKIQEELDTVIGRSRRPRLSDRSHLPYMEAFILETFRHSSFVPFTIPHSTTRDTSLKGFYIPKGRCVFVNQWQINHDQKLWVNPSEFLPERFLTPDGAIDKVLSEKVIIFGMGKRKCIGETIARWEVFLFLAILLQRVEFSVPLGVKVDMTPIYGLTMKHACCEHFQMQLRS

CYP4F12 = target: T4, CYP4F12 (Homo sapiens, UniProt Q9HCS2)
T4 sequence (Q9HCS2 1-524): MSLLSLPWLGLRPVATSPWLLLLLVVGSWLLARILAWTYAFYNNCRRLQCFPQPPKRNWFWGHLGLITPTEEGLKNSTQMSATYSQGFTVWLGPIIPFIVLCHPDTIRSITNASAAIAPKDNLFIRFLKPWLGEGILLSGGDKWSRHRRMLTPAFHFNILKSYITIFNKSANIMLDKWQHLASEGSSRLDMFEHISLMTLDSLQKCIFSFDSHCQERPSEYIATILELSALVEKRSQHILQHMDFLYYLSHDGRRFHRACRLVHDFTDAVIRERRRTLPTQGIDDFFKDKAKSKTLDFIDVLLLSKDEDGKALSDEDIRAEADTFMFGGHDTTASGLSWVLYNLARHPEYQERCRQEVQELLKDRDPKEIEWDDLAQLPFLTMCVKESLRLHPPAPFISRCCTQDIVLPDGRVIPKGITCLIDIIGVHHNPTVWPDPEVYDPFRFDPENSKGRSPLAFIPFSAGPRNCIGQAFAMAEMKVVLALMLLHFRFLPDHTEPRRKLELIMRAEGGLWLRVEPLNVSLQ

CYP4F8 = target: T5, CYP4F8 (Homo sapiens, UniProt P98187)
T5 sequence (P98187 1-520): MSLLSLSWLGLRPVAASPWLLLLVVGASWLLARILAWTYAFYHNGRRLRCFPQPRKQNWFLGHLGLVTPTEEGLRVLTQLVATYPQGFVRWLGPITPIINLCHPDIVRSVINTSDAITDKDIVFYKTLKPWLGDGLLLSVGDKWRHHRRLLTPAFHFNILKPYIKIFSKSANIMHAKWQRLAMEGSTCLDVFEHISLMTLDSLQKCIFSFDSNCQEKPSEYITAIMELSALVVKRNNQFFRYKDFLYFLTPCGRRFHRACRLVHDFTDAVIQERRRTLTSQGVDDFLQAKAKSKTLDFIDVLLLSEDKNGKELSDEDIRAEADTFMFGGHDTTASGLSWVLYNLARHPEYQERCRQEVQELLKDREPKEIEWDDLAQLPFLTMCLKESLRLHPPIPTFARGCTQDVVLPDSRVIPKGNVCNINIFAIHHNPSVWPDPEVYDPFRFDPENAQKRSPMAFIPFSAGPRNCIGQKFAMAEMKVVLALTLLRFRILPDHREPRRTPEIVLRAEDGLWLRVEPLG

Sequence of CYP2C19 (P33261 whole entry): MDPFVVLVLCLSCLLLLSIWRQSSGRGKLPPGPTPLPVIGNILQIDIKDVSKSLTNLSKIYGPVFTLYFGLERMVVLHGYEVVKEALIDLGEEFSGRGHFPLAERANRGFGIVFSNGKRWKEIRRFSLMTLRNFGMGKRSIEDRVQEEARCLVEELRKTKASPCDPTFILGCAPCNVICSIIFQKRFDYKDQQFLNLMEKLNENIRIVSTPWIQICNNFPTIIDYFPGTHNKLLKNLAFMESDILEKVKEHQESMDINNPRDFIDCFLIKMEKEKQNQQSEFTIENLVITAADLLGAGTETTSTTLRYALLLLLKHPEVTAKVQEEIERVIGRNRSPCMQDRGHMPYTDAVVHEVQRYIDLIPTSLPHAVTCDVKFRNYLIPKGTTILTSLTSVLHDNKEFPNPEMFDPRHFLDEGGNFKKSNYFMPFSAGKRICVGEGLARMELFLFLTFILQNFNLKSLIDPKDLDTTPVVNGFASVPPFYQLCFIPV
Sequence of CYP2E1 (P05181 whole entry): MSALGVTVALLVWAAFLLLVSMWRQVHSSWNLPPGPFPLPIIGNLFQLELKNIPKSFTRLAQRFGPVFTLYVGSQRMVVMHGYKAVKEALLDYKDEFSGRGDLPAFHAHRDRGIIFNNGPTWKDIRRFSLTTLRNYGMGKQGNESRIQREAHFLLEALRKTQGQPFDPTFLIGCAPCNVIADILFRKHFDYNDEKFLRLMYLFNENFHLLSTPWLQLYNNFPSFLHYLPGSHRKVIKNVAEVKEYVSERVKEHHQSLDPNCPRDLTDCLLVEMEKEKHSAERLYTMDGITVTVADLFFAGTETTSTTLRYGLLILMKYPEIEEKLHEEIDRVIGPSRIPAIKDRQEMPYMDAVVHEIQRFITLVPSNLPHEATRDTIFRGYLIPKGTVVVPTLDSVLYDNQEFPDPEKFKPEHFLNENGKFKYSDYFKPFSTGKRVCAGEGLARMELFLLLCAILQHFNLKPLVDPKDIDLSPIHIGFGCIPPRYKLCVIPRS

role towards CYP2C19 (substrate / inhibitor / inducer) (CYP2C19): Substrate
role towards CYP2E1 (substrate / inhibitor / inducer) (CYP2E1): Inhibitor
role towards CYP4A11 (substrate / inhibitor / inducer) (CYP4A11): Substrate
role towards CYP3A4 (substrate / inhibitor / inducer) (CYP3A4): Inhibitor; also recorded: Substrate
role towards CYP4B1 (substrate / inhibitor / inducer) (CYP4B1): Substrate
role towards CYP2C8 (substrate / inhibitor / inducer) (CYP2C8): Substrate
role towards CYP1A1 (substrate / inhibitor / inducer) (CYP1A1): Inhibitor
role towards CYP4F12 (substrate / inhibitor / inducer) (CYP4F12): Substrate
role towards CYP4F8 (substrate / inhibitor / inducer) (CYP4F8): Substrate
Compound: CCCCC/C=C\C/C=C\C/C=C\C/C=C\CCCC(=O)O [Arachidonic acid, arachidonic acid]
